Experimental data published in ChEMBL document CHEMBL6115000, “Discovery of a first-in-class PROTAC degrader of histone lysine demethylase KDM4” (Eur J Med Chem, 2025).
Activity calls are given as the source filed them. The rule behind the calls is not given here.

Columns and labels:
[1] = target: T1, von Hippel-Lindau disease tumor suppressor/Lysine-specific demethylase 4A (Homo sapiens, UniProt O75164+P40337); experiment: PROTAC activity at VHL/KDM4A in human KYSE-150 cells assessed as induction of KDM4A degradation at 0.1 uM incubated for 12 hrs by Western blot analysis relative to control; type: cell-based; conditions: KYSE-150 cell line
T1 sequence (O75164 2-1064 limits assumed): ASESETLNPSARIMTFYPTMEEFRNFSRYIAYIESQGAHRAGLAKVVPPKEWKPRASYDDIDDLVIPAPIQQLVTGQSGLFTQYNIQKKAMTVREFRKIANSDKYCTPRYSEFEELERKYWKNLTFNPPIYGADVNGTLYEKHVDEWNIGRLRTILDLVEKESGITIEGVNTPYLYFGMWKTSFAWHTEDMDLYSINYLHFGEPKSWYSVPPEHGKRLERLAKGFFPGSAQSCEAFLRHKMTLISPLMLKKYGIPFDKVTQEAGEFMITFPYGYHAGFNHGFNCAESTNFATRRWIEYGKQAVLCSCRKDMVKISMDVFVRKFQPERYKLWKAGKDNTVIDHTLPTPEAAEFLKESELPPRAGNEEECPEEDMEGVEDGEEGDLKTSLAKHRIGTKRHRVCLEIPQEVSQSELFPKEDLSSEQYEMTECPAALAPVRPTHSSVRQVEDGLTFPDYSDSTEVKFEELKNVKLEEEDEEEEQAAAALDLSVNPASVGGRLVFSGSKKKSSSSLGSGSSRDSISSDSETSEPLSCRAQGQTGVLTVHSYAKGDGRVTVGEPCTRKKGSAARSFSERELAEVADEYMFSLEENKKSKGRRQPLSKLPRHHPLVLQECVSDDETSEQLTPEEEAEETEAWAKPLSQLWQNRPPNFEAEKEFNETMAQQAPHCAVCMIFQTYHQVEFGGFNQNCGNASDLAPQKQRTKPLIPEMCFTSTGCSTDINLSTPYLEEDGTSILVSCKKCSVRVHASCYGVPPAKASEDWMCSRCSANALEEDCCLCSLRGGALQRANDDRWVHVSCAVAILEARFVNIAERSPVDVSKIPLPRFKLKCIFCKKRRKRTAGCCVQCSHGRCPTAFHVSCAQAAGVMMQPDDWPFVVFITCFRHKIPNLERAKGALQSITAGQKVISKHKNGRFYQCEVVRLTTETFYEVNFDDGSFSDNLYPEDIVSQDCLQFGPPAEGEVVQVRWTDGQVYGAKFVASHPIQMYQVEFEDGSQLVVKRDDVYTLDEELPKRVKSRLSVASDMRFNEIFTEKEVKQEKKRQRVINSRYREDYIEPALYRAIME
T1 sequence (P40337 whole entry partner): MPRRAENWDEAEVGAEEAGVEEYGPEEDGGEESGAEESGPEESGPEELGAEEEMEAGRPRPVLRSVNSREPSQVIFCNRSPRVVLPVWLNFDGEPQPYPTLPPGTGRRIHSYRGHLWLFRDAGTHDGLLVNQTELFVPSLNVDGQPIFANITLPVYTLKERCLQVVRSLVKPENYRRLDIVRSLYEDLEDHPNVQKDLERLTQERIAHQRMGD

[2] = target: T1, von Hippel-Lindau disease tumor suppressor/Lysine-specific demethylase 4A; experiment: PROTAC activity at VHL/KDM4A in human KYSE-150 cells assessed as induction of KDM4A degradation at 500 nM measured for 8 to 36 hrs by Western blot analysis; type: cell-based; conditions: KYSE-150 cell line, time 8-36 hrs
[3] = target: T1, von Hippel-Lindau disease tumor suppressor/Lysine-specific demethylase 4A; experiment: PROTAC activity at VHL/KDM4A in human KYSE-150 cells assessed as induction of KDM4A degradation upto 1000 nM measured after 24 hrs by Western blot analysis relative to control; type: cell-based; conditions: KYSE-150 cell line
[4] = target: von Hippel-Lindau disease tumor suppressor/Lysine-specific demethylase 4D (Homo sapiens, UniProt Q6B0I6+P40337); experiment: PROTAC activity at VHL/KDM4D in human KYSE-150 cells assessed as induction of KDM4D degradation measured after 24 hrs by Western blot analysis; type: cell-based; conditions: kyse-150 cell line
von Hippel-Lindau disease tumor suppressor/Lysine-specific demethylase 4D, sequence (Q6B0I6 whole entry): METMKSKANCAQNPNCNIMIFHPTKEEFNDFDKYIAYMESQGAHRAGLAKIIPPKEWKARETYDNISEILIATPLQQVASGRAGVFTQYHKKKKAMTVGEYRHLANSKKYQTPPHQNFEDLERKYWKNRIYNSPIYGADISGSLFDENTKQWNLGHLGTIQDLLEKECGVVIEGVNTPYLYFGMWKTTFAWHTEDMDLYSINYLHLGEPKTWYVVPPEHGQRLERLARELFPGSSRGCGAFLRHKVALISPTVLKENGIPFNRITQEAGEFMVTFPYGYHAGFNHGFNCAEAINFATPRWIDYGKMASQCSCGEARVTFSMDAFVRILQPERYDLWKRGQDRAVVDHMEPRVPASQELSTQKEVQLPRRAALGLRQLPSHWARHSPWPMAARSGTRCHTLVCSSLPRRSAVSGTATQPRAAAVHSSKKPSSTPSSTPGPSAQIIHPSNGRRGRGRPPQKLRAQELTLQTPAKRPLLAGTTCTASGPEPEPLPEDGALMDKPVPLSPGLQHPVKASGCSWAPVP
von Hippel-Lindau disease tumor suppressor/Lysine-specific demethylase 4D, sequence (P40337 whole entry): as the sequence (P40337 whole entry partner) above

[5] = target: T1, von Hippel-Lindau disease tumor suppressor/Lysine-specific demethylase 4A; experiment: PROTAC activity at VHL/KDM4A in human KYSE-150 cells assessed as induction of KDM4A degradation upto 1000 nM by Western blot analysis; type: cell-based; conditions: KYSE-150 cell line
[6] = target: T1, von Hippel-Lindau disease tumor suppressor/Lysine-specific demethylase 4A; experiment: PROTAC activity at VHL/KDM4A in human KYSE-150 cells assessed as induction of KDM4A degradation at 50 nM incubated for 24 hrs in presence of bortezomib by Western blot analysis; type: cell-based; conditions: KYSE-150 cell line
[7] = target: T1, von Hippel-Lindau disease tumor suppressor/Lysine-specific demethylase 4A; experiment: PROTAC activity at VHL/KDM4A in human KYSE-150 cells assessed as induction of KDM4A degradation at 50 nM incubated for 24 hrs in presence of MLN4924 by Western blot analysis; type: cell-based; conditions: KYSE-150 cell line
[8] = target: T1, von Hippel-Lindau disease tumor suppressor/Lysine-specific demethylase 4A; experiment: PROTAC activity at VHL/KDM4A in human KYSE-150 cells assessed as increase in KDM4A ubiquitination at 50 nM incubated for 24 hrs by Western blot analysis; type: cell-based; conditions: KYSE-150 cell line
[9] = target: T1, von Hippel-Lindau disease tumor suppressor/Lysine-specific demethylase 4A; experiment: PROTAC activity at VHL/KDM4A in human KYSE-150 cells assessed as increase in H3K36me3 level incubated for 24 hrs by Western blot analysis; type: cell-based; conditions: KYSE-150 cell line, dose <= 1000.0 nM
[10] = Induction of cell cycle arrest in human KYSE-150 cells assessed as accumulation of cells at S pahse at 12.3 nM incubated for 24 hrs by flow cytometry (reference value: 13.15 %); type: functional
[11] = Induction of cell cycle arrest in human KYSE-150 cells assessed as accumulation of cells at G2/M phase at 12.3 nM incubated for 24 hrs by flow cytometry (reference value: 21.64 %); type: functional
[12] = Induction of cell cycle arrest in human KYSE-150 cells assessed as accumulation of cells at S pahse at 37 nM incubated for 24 hrs by flow cytometry (reference value: 13.15 %); type: functional
[13] = Induction of cell cycle arrest in human KYSE-150 cells assessed as accumulation of cells at G2/M phase at 37 nM incubated for 24 hrs by flow cytometry (reference value: 21.64 %); type: functional
[14] = Induction of cell cycle arrest in human KYSE-150 cells assessed as accumulation of cells at G0/G1 phase at 111.1 nM incubated for 24 hrs by flow cytometry (reference value: 65.08 %); type: functional
[15] = Induction of cell cycle arrest in human KYSE-150 cells assessed as accumulation of cells at G0/G1 phase at 333.3 nM incubated for 24 hrs by flow cytometry (reference value: 65.08 %); type: functional
[16] = Induction of cell cycle arrest in human KYSE-150 cells assessed as accumulation of cells at G2/M phase at 333.3 nM incubated for 24 hrs by flow cytometry (reference value: 21.64 %); type: functional
[17] = Induction of cell cycle arrest in human KYSE-150 cells assessed as accumulation of cells at S pahse at 1000 nM incubated for 24 hrs by flow cytometry (reference value: 13.15 %); type: functional
[18] = Induction of apoptosis in human KYSE-150 cells assessed as viable cells at 12.3 nM incubated for 72 hrs by Annexin V-PE/7-AAD staining based flow cytometry (reference value: 84.47 %); type: functional; conditions: read-out: Activity
[19] = Induction of apoptosis in human KYSE-150 cells assessed as late apoptotic cells at 12.3 nM incubated for 72 hrs by Annexin V-PE/7-AAD staining based flow cytometry (reference value: 5.98 %); type: functional
[20] = Induction of apoptosis in human KYSE-150 cells assessed as viable cells at 37 nM incubated for 72 hrs by Annexin V-PE/7-AAD staining based flow cytometry (reference value: 84.47 %); type: functional; conditions: read-out: Activity
[21] = Induction of apoptosis in human KYSE-150 cells assessed as viable cells at 111.1 nM incubated for 72 hrs by Annexin V-PE/7-AAD staining based flow cytometry (reference value: 84.47 %); type: functional; conditions: read-out: Activity
[22] = Induction of apoptosis in human KYSE-150 cells assessed as early apoptotic cells at 333.3 nM incubated for 72 hrs by Annexin V-PE/7-AAD staining based flow cytometry (reference value: 5.27 %); type: functional
[23] = Induction of apoptosis in human KYSE-150 cells assessed as necrotic cells at 333.3 nM incubated for 72 hrs by Annexin V-PE/7-AAD staining based flow cytometry (reference value: 4.28 %); type: functional
[24] = Induction of apoptosis in human KYSE-150 cells assessed as late apoptotic cells at 1000 nM incubated for 72 hrs by Annexin V-PE/7-AAD staining based flow cytometry (reference value: 5.98 %); type: functional

Activity [1]: 44.9% | Activity [2]: Active | Emax [3]: 83.3% | DC50 [4]: > 1000 nM | Activity [5]: Time-dependent-effect | Activity [6]: inactive | Activity [7]: inactive | Activity [8]: Active | Activity [9]: Active
SMILES: Cc1ncsc1-c1ccc([C@H](C)NC(=O)[C@@H]2C[C@@H](O)CN2C(=O)[C@@H](NC(=O)CCCCCCCCCOc2ccc(N(C)c3ccc4c(c3)OCC[C@H]4CNc3cnccc3C(=O)O)cc2)C(C)(C)C)cc1
Activity [10]: 14.42% | Activity [11]: 16.31% | Activity [12]: 14.84% | Activity [13]: 13.29% | Activity [14]: 73.05% | Activity [15]: 72.82% | Activity [16]: 13.01% | Activity [17]: 13.1% | viability at 0.0123 µM [18]: 64.4% | Activity [19]: 18.97% | viability at 0.037 µM [20]: 30.6% | viability at 0.1111 µM [21]: 18.2% | Activity [22]: 26.6% | Activity [23]: 4.83% | Activity [24]: 47.86%
